Key:
[1] = Determination of lipid-water partition coefficients (n-octanol/water, HPLC); assay type: physicochemical; details: 37° C.
Method: (1) Determination of lipid-water partition coefficients: a standard curve was first made. […] Their respective solution was subjected to the HPLC sample injection analysis. HPLC conditions were: mobile phase: 5%˜95% acetonitrile/water, gradient elution, a flow rate of 0.6 mL/min, a sample injection volume of 10 μL, a detection wavelength of 254/280 nm, run for 20 min. The retention time and peak area were recorded, and the standard curve was obtained by regressing the concentration and the peak area.
Moreover, 10 mL of water and 10 mL of n-octanol were taken into a 25 mL eggplant-shaped flask and stirred for 24 hours until the two phases were saturated with each other. The mixed solution was then transferred to a separatory funnel. Let it stand for liquid separation. 1 mL of the upper layer (saturated n-octanol layer) was taken, about 2 mg of the compound to be tested was added to vortex for 5 minutes to fully dissolve, and 1 mL of saturated aqueous phase was additionally taken and mixed with the saturated n-butanol phase in which the compound was dissolved. After vortexing for 5 minutes and oscillation for 24 hours in a water bath at 37° C., centrifugation was performed at 3500 rpm for 15 minutes. The upper n-octanol layer and the lower aqueous layer were respectively taken for the sample injection analysis under HPLC conditions. […]

[2] = test system: mouse osteoblast precursor cells MC3T3-E1 Subclone 14; assay: Proliferation-promoting effect by MTT assay; assay type: cell-based; details: for Proliferation Rate: 6th day, MTT
Method: Genistein and estradiol were used as positive control groups. MC3T3-E1 Subclone 14 was cultured using the α-MEM medium containing 10% FBS in a constant temperature incubator at 37° C. with 5% CO2. The MC3T3-E1 Subclone 14 cells in logarithmic growth phase and in good condition were digested with addition of an appropriate amount of trypsin (commercially available from GIBCO), and the cells were collected. The cells were resuspended in the α-MEM medium containing 10% FBS, and seeded on a 96-well plate at an amount of 2000 cells per well. After cell adhesion, the medium was changed to the α-MEM medium containing 10% FBS of different concentrations of compounds at 200 μL per well. The cells with the culture fluid containing 0.2% DMSO added thereto were used as a negative control group of the medium. The medium was added to the wells without seeded cells as a blank control group. Six replicate wells were set for each concentration. The medium was changed once every 2 days, and on the 6th day of administration, a 20 μL MTT/PBS solution at 5 mg/mL was added to the above 96-well plate, and the incubation was continued for 4 hours. After the time point, the liquid was carefully aspirated and 150 μL of DMSO was added to each well to completely dissolve the purple crystal formazan formed by live cells and MTT. The optical density (OD) value was measured at 490 nm with a microplate reader. The proliferation rate was calculated according to the following formula: Proliferation rate=[(the average OD value of the administration group−the average OD value of the blank group)/(the average OD value of the culture fluid control group−the average OD value of the blank group)].

[3] = test system: mouse osteoblast precursor cells MC3T3-E1 Subclone 14; assay: Differentiation-promoting effect, ALP enzyme activity assay; assay type: cell-based; details: for ALP enzyme activity relative values (experimental group/blank group): 6th day
Source text: (2) Study on the differentiation-promoting effect of compounds on mouse osteoblast precursor cells MC3T3-E1 Subclone 14 (see Table 2): MC3T3-E1 subclone 14 cells were digested with pancreatin and collected and then seeded into a 6-well plate at 4×10^4/well. […] The administration concentrations of the compounds were 10^−4˜10^−9 M, respectively; and the administration concentration of the positive control drug group genistein GEN was 10^−6 M, a concentration at which it had the highest osteogenesis promoting ability as reported in the literature. On the 6th day of administration, each well was washed twice with PBS, 150 uL of Western and IP cell lysate (with no protein inhibitor, commercially available from Beyotime) was then added to lyse the cells. This operation was performed on ice. 50 uL of cell lysate was diluted to 250 uL with PBS. 50 uL of dilution was additionally transferred to a 96-well plate for an ALP enzyme activity assay. The absorbance of each well in the 96-well plate was measured with a microplate reader at 405 nm.

osteoblasts = assay: Formation of calcium nodules in osteoblasts (Alizarin Red); assay type: cell-based, mouse; details: 15th day
Method: (3) Study on the effect of target compounds on the formation of calcium nodules in osteoblasts (see FIG. 1 and Table 3 for details): after being digested, the cells were seeded into a 6-well plate at 4×10^4/well. […] The administration concentrations of the compounds were 10^−4˜10^−9 M, respectively; and the concentration of genistein is 10^−6 M. On the 15th day of administration, the medium was aspirated, each well was then washed twice with PBS, the cells were then fixed with 95% ethanol for 10 minutes and rinsed twice with double distilled water. 2 mL of a 0.1% Alizarin Red-Tris. HCl solution (PH=8.3) was added to each well, the cells were incubated at 37° C. for 30 minutes, then rinsed with double distilled water for several times, dried, and mounted. The formation of calcium nodules was further observed by taking pictures under a 40× microscope. Afterwards, 1 mL of a 10% cetylpyridinium chloride solution was added to each well, and the incubation was carried out for 30 minutes to release the Alizarin Red staining. The solution was transferred to a 96-well plate at 200 uL per well, the absorbance was measured at 562 nm using a microplate reader, and a quantitative analysis of calcium nodules was performed.

[4] = test system: mouse mononuclear macrophages RAW264.7; assay: Bone resorption inhibition: TRAP-positive multinucleated osteoclast count; assay type: cell-based; details: 5 days; for Number of Osteoclasts (cell): control group 117
Method: After being cultured for 5 days, the cells were stained with a tartrate-resistant acid phosphatase TRAP incubation solution, mounted with glycerol gelatin, and observed under light microscope to count stained TRAP-positive multinucleated cells (as shown in FIG. 2). The inhibition rate of the administrated drug on the number of TRAP-positive multinucleated cells is (nTRAP-positive multinucleated osteoclasts in the negative control group−nTRAP-positive multinucleated osteoclasts in the drug administration group)/nTRAP-positive multinucleated osteoclasts in the negative control group×100%.

[5] = Metabolic stability in human liver microsomes; assay type: in vitro ADME; details: 37° C.
Method: Experimental method: the incubation system comprising human liver microsomes, cofactors, and PBS was pre-incubated at 37° C. for 3 minutes, and a substrate was added to start the reaction. Sampling was performed at 0, 1, 5, 10, 15, 20, 30, and 60 minutes after the start of the reaction, and an appropriate terminator was added to terminate the reaction. Sample treatment (n=3): appropriate internal standards were added to each; after vortexing, centrifugation was performed at a high speed, the supernatant was taken, and the substrate was detected by employing HPLC-MS/MS. The peak area at a time point 0 min was taken as 100%. Peak areas at other time points were converted to the remaining percentage, the natural logarithm of the remaining percentage at each time point versus incubation time was plotted, and a slope (−k) was calculated by linear regression, and then CLint (mL·min^−1·mg^−1) was calculated based on the inherent clearance (CLint)=(k×the volume of incubation solution)/mass of liver microsomes.

estrogen receptor ERβ = estrogen receptor ERβ (Homo sapiens, UniProt Q92731); assay: Estrogen receptor agonism (earlier experiments of the research team)
estrogen receptor ERβ, sequence (Q92731 whole entry): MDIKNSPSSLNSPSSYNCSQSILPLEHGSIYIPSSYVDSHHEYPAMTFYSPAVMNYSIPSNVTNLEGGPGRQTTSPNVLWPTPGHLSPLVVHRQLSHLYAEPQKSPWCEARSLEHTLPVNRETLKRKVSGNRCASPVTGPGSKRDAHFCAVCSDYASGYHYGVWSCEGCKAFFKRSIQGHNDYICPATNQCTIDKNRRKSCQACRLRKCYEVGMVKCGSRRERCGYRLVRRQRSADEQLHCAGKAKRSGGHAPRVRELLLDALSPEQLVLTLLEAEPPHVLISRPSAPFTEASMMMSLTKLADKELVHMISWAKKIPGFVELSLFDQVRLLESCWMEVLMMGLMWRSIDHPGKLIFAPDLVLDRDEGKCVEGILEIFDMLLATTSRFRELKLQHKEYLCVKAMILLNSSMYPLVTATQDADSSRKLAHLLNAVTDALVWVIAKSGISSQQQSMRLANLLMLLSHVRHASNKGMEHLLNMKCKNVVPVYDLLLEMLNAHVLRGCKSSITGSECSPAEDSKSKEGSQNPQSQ

Structure (SMILES) | Proliferation Rate ([2]; 10^−4 M) | Proliferation Rate ([2]; 10^−5 M) | Proliferation Rate ([2]; 10^−6 M) | Proliferation Rate ([2]; 10^−7 M) | Proliferation Rate ([2]; 10^−8 M) | Proliferation Rate ([2]; 10^−9 M) | ALP enzyme activity relative values (experimental group/blank group) ([3]; 10^−4 M) | ALP enzyme activity relative values (experimental group/blank group) ([3]; 10^−5 M) | ALP enzyme activity relative values (experimental group/blank group) ([3]; 10^−6 M) | ALP enzyme activity relative values (experimental group/blank group) ([3]; 10^−7 M) | ALP enzyme activity relative values (experimental group/blank group) ([3]; 10^−8 M) | ALP enzyme activity relative values (experimental group/blank group) ([3]; 10^−9 M) | Relative values of calcium nodule amount (experimental group/blank group) (osteoblasts; 10^−6 M) | Relative values of calcium nodule amount (experimental group/blank group) (osteoblasts; 10^−8 M) | Number of Osteoclasts (cell) ([4]; 10^−6 M) | Number of Osteoclasts (cell) ([4]; 10^−8 M) | also measured
O=C1c2cc(O)cc(O)c2[C@@H](c2ccc(O)cc2)[C@@H]1c1cc(O)cc(O)c1 [Isopaucifloral F, isopaucifloral F] | 1.24 ± 0.028 | 1.06 ± 0.014 | 1.02 ± 0.024 | 0.98 ± 0.020 | 0.98 ± 0.045 | 0.95 ± 0.016 | 0.732 ± 0.03 | 0.951 ± 0.04 | 0.954 ± 0.02 | 1.135 ± 0.06 | 1.029 ± 0.11 | 0.864 ± 0.05 | 0.932 ± 0.03 | 0.917 ± 0.03 | 85 cell | 102 cell | log P [1]: 1.34; proliferation rates ([2]; highest value of each compound, concentration not given): 124%; ALP enzyme activity, times those of the control group ([3]; highest value, concentration not given): 1.14 times; ALP enzyme activity increased by ([3]; versus control group, concentration not given): 13.5%; Relative values of calcium nodule amount (experimental group/blank group) (osteoblasts; 10^−4 M): 0.982 ± 0.04; Relative values of calcium nodule amount (experimental group/blank group) (osteoblasts; 10^−5 M): 0.915 ± 0.03; Relative values of calcium nodule amount (experimental group/blank group) (osteoblasts; 10^−7 M): 0.964 ± 0.03; Relative values of calcium nodule amount (experimental group/blank group) (osteoblasts; 10^−9 M): 0.916 ± 0.03; Relative Inhibition Rates (%) ([4]; 10^−4 M): 28.2%; Number of Osteoclasts (cell) ([4]; 10^−4 M): 84 cell; Relative Inhibition Rates (%) ([4]; 10^−6 M): 27.4%; Relative Inhibition Rates (%) ([4]; 10^−8 M): 12.8%; CLint(liver) [5]: 123.4 mL/min/kg; T1/2 [5]: 10.1 min; activity at estrogen receptor ERβ (estrogen receptor ERβ): selective agonist
C[C@]12CC[C@@H]3c4ccc(O)cc4CC[C@H]3[C@@H]1CC[C@@H]2O [E2, estradiol] | 0.05 ± 0.002 | 0.82 ± 0.003 | 1.07 ± 0.019 | 1.08 ± 0.003 | 1.07 ± 0.005 | 1.06 ± 0.003 |  |  |  |  | 1.050 ± 0.02 |  |  | 1.007 ± 0.02 |  |  | 
CCOP(=O)(OCC)OC1=C(c2cc(OC)cc(OC)c2)C(c2ccc(OC)cc2)c2c(OC)cc(OC)cc21 (stereo not drawn) [7b] |  |  |  |  |  |  | 0.919 ± 0.04 | 0.986 ± 0.17 | 0.993 ± 0.01 | 1.195 ± 0.02 | 1.097 ± 0.07 | 0.899 ± 0.11 |  |  |  |  | 
CCOP(=O)(OCC)OC1=C(c2cc(OC)cc(OC)c2)C(c2ccc(OP(=O)(OCC)OCC)cc2)c2c(OC)cc(OC)cc21 (stereo not drawn) [7a] |  |  |  |  |  |  | 2.362 ± 0.04 | 1.440 ± 0.31 | 1.023 ± 0.05 | 0.877 ± 0.01 | 0.860 ± 0.01 | 0.861 ± 0.05 |  |  |  |  | 
O=C(c1ccc(OCCN2CCCCC2)cc1)c1c(-c2ccc(O)cc2)sc2cc(O)ccc12 [Raloxifene] |  |  |  |  |  |  |  |  |  |  |  |  |  |  | 64 cell | 67 cell | inhibition at 1 µM ([4]; Mus musculus, RAW264.7, 120 h, 10^−6 M, read-out: Relative Inhibition Rates (%)): 45.3%; inhibition at 0.01 µM ([4]; Mus musculus, RAW264.7, 120 h, 10^−8 M, read-out: Relative Inhibition Rates (%)): 42.7%
O=c1c(-c2ccc(O)cc2)coc2cc(O)cc(O)c12 [GEN, genistein] | 0.02 ± 0.0003 | 0.71 ± 0.007 | 1.05 ± 0.019 | 0.99 ± 0.003 | 1.01 ± 0.005 | 1.03 ± 0.003 |  |  | 1.341 ± 0.01 |  |  |  | 1.028 ± 0.03 |  |  |  | 

From patent US12384806B2, “Isopaucifloral F phosphate compound and pharmaceutical use thereof” (FUDAN UNIVERSITY, priority 2020, dated 2025)
